Data on 3 compounds can be found in patent US5053226A, “Monoclonal antibodies binding platinum complexes” (Board of Regents, The University of Texas System, priority 1987, dated 1991).

For series [1], the system named is cells resistant to cisplatin. The conditions noted are these: cited from earlier work.
The target in series [2] is monoclonal antibody from hybridoma 1C1 H2 A5. The series can be described thus: Competitive ELISA of platinum compounds for binding to 1C1 H2 A5 monoclonal antibody. The settings on record: for concentration of agent which decreased the antibody binding to 50% of control: MOAB 1C1 H2 A5, immobilized DACH Pt complex in microtiter wells. More on the design: species or system mouse. On the procedure: A DACH Pt complex was immobilized on the surface of microtiter wells.
A DACH Pt complex was immobilized on the surface of microtiter wells, to which MOAB binding was measured.
A competitive ELISA assay using monoclonal antibody specific for platinum (II) complex was performed. Monoclonal antibody from hybridoma 1C1 H2 A5 was added to microtiter wells having an immobilized DACH Pt complex. The MOAB was added either with no free platinum complex (control) or with increasing amounts of free MIDP platinum complex. Additionally, three compounds (designated A, B and C), whose identities were best unknown at that time, were added in parallel to the MIDP competition study. As shown in FIG. 10 the competition of compound A was quite similar to that of MIDP. Compound B (FIG. 11) was less similar to MIDP and compound C (FIG. 12) was least like MIDP although still being inhibitory of MOAB binding. The concentration of each agent which decreased the antibody binding to 50% of control was: MIDP=lug; A=2ug; B=4ug and C=200ug.
For orientation: ELISA stands for enzyme-linked immunosorbent assay.

The subject of series [3] is human breast carcinoma cells (MCF-7). The series can be described thus: MTT assay; cytotoxicity on MCF-7 breast carcinoma cells. Type of series: cell-based. The conditions noted are these: MCF-7, 72 hrs. On the procedure:
Eight thousand MCF-7 cells were seeded per well and an MTT dye viability test performed.
In order to determine whether the MIDP/MOAB complex retained antiproliferative activity against cells in culture, the antibody (2 mg) was incubated with 200 ug of MIDP platinum complex for 24 hrs. The MOAB/MIDP solution was then dialyzed for 4 hrs at 4° C. against phosphate-buffered saline (PBS). The dialysate was then analyzed for total platinum by atomic absorption spectrometry. The monoclonal antibody/MIDP complex was then added to human breast carcinoma cells (MCF-7) in concentrations between 0.01 and 10 ug Pt/ml. As a control on the same plates, MIDP was also added at equal platinum concentrations. At 72 hrs after treatment, the wells were assessed for viable cells by MTT assay.
**Cell survival was determined using the tetrazolium dyebinding method
(MTT) which dye reacts only with living cells.
For orientation: Tetrazolium dyes change colour on reduction, which living cells bring about.

For series [4], the system named is L1210 leukemia. The conditions noted are these: mice, multi-dose administration; cited from earlier work.
The test system of series [5] is B16 melanoma. The conditions noted are these: mice, multi-dose administration; cited from earlier work.
For series [6] the following is noted: in vivo; cited from earlier work.

On to `CN(CC(=O)[O-])CC(=O)[O-].NC1CCCCC1N.[Pt+2]` [MIDP, methylimino-diacetato-1,2-diaminocyclohexane platinum (II)], for which the cross-resistance entry in series [1] is reported as “not to display cross-resistance”. Besides, the “concentration of agent which decreased the antibody binding to 50% of control” value in series [2] was determined as 2 µg. In addition, the “Percent of Control Cell survival” value in series [3] (MIDP concentration 0.019 ug/ml) is listed as 86.9%; in series [3] (MIDP concentration 0.039 ug/ml) it was 84.3%; in series [3] (MIDP concentration 0.078 ug/ml), 72.4%; in series [3] (MIDP concentration 0.156 ug/ml) it was 45.5%; in series [3] (MIDP concentration 0.312 ug/ml), 32.3%; in series [3] (MIDP concentration 0.625 ug/ml), 17.0%. In addition, the “Percent of Control Cell survival” value in series [3] (MIDP concentration 1.25 ug/ml) worked out at 18.5%; in series [3] (MIDP concentration 2.5 ug/ml) it was 15.2%; in series [3] (MIDP concentration 5 ug/ml), 10.8%; in series [3] (MIDP concentration 10 ug/ml) it was 8.3%. In addition, in series [3] (MTT, platinum concentration), the “concentration required for 50% inhibition of cell growth” value is 0.15 µg/mL. The “treatment of L1210 leukemia” value in series [4] is “curative”. Moreover, the “treatment of B16 melanoma” value in series [5] is on record as “curative”. Moreover, the renal toxicity entry in series [6] is on record as “does not induce renal toxicity”.
On to `NC1CCCCC1N.O=C([O-])C1(C(=O)[O-])CCC1.[Pt+2]` [Compound B, DACH Pt(II) 1,1-dicarboxylatocyclobutane], for which, in series [2], the “concentration of agent which decreased the antibody binding to 50% of control” value came out at 4 µg. Further, in series [2] (relative to compound C), the “binding to the antibody relative to compound C” value was “about 50 fold”.
On to `N.N.O=C([O-])C1(C(=O)[O-])CCC1.[Pt+2]` [Compound C, diamine Pt(II) 1,1-dicarboxylatocyclobutane], for which the “concentration of agent which decreased the antibody binding to 50% of control” value in series [2] was 200 µg. In addition, the “amount needed to compete at a level with MIDP” value in series [2] (relative to MIDP) was 100-200 times.
